Reference: the C3SDB collision cross section collection

Conditions: instrument: DT, single field, calibrated with Agilent tune mix (Agilent)

SMILES | collision cross section (N2) ([M+Na]+) [Å²] | collision cross section (N2) ([M-H]-) [Å²] | collision cross section (N2) ([M+H]+) [Å²] | also measured
O=C(O)C(CO)OP(=O)(O)O (racemic) [DL-2-Phosphoglycerate] | 141.8 | – | – | –
Cc1cn([C@@H]2O[C@H](CO)[C@@H](O)[C@H]2O)c(=O)[nH]c1=O [Ribothymidine] | 165.6 | 153.52 | – | –
NC(=O)N[C@@H](CC(=O)O)C(=O)O [N-carbamoyl-L-aspartate] | 139.1 | – | – | –
N#C[C@H](O[C@@H]1O[C@H](CO)[C@@H](O)[C@H](O)[C@H]1O)c1ccccc1 [Prunasin] | 173.7 | – | – | –
O=C(O)CC[C@@](O)(CC(=O)O)C(=O)O [Homocitrate] | 145 | 129.99 | – | –
CCCCC[C@H](O)/C=C/[C@H]1[C@H](O)CC(=O)[C@@H]1CCCCCCC(=O)O [Prostaglandin E1] | 198.3 | – | – | collision cross section (N2) ([M-H2O-H]-): 181.94 Å²
O=P(O)(O)OC[C@H]1O[C@@H](O)C[C@@H]1O [Deoxyribose 5-phosphate] | 148.4 | – | – | –
O=Cc1cc(O)ccc1O [Gentisaldehyde] | – | 119.54 | 122 | –
C[N+](C)(C)CCOP(=O)([O-])OC[C@H](O)CO [Glycerophosphocholine] | – | – | 155.5 | –
N[C@@H](CCC(=O)N[C@@H](CSSC[C@H](NC(=O)CC[C@H](N)C(=O)O)C(=O)NCC(=O)O)C(=O)NCC(=O)O)C(=O)O [Glutathione disulfide] | – | – | 224.7 | –
Nc1nc(=O)c2ncn([C@@H]3O[C@H](COP(=O)(O)OP(=O)(O)O[C@H]4O[C@H](CO)[C@@H](O)[C@H](O)[C@@H]4O)[C@@H](O)[C@H]3O)c2[nH]1 [Guanosine diphosphate mannose] | 220.9 | 207.35 | – | –
Cn1c(=O)[nH]c(=O)c2[nH]c(=O)[nH]c21 [3-Methyluric acid] | – | 128.86 | – | –
O=P(O)(O)O[C@]1(CO)O[C@H](CO)[C@@H](O)[C@@H]1O [Beta-D-Fructose 2-phosphate] | 154 | 141.51 | – | –
O=C(O)C1(O)C[C@@H](O)C(O)[C@H](O)C1 (stereo partly specified) [Quinate] | 150.9 | 132.25 | – | –
N#CC(O)c1ccccc1 (stereo unspecified) [Mandelonitrile] | – | – | 128.9 | –
C[C@@H](N)C(=O)N[C@H](C)C(=O)O [D-Ala-D-Ala] | 142.8 | – | – | –
CC(=O)N[C@H]1[C@H]([C@H](O)[C@H](O)CO)OC(O)(C(=O)O)C[C@@H]1O (stereo partly specified) [N-Acetylneuraminic acid] | 168.6 | – | – | –
C[N+](C)(C)CC=O [Betaine aldehyde] | – | – | 117.2 | –
Nc1ncnc2c1ncn2[C@@H]1O[C@H](COP(=O)(O)OP(=O)(O)OC[C@@H](O)[C@@H](O)[C@@H](O)C=O)[C@@H](O)[C@H]1O [ADP Ribose] | – | – | 211.4 | –

SMILES | collision cross section (N2) ([M+Na]+) [Å²] | collision cross section (N2) ([M-H]-) [Å²] | collision cross section (N2) ([M+H]+) [Å²] | also measured
O=C(O)[C@H](O)COP(=O)(O)O [3-Phospho-D-glycerate] | 139.4 | – | – | –
Nc1ccn([C@H]2C[C@H](O)[C@@H](COP(=O)(O)O)O2)c(=O)n1 [2'-Deoxycytidine 5'-monophosphate] | 164 | – | – | –
C[C@]12CC[C@@H](O)C[C@H]1CC[C@@H]1[C@@H]2[C@@H](O)C[C@]2(C)[C@@H](C(=O)CO)CC[C@@H]12 [3alpha,11beta,21-Trihydroxy-5beta-pregnan-20-one] | – | 187.18 | – | collision cross section (N2) ([M+H-H2O]+): 179.6 Å²
CC(=O)Oc1cc(C)c(OC(C)=O)c2ccccc12 [Acetomenaphthone] | 157.2 | – | – | –
C[C@]12CC[C@H]3[C@@H](CC=C4C[C@@H](O)CC[C@@]43C)[C@@H]1CC[C@@H]2C(=O)CO [21-Hydroxypregnenolone] | – | 185.89 | – | collision cross section (N2) ([M+H-H2O]+): 178.4 Å²
CCCCCCCCCCCCCCCC=O [Palmitaldehyde] | – | 163.36 | – | –
NC(CCCC(=O)O)C(=O)O (racemic) [DL-2-Aminoadipic acid] | – | 127.69 | 134.4 | –
Nc1nc(=O)c2ncn([C@@H]3O[C@H](COP(=O)(O)OP(=O)(O)O[C@H]4O[C@H](CO)[C@@H](O)[C@H](O)[C@H]4O)[C@@H](O)[C@H]3O)c2[nH]1 [GDP-glucose] | – | 208.72 | 218.9 | –
OC[C@@H](O)[C@H](O)[C@H](O)[C@@H](O)CO [Dulcitol] | 141.7 | 128.77 | – | –
COc1ccc2[nH]cc(CCNC(C)=O)c2c1 [Melatonin] | – | 153.53 | 154.3 | –
Nc1nc(=O)c2ncn([C@@H]3O[C@@H]4COP(=O)(O)O[C@H]4[C@H]3O)c2[nH]1 [cGMP] | – | – | 172.8 | –
CC1=C(C/C=C(\C)CCC[C@H](C)CCC[C@H](C)CCCC(C)C)C(=O)c2ccccc2C1=O [Phylloquinone] | – | 211.81 | 217.3 | –
O=P(O)(O)OC1O[C@H](CO)[C@@H](O)[C@H](O)[C@@H]1O (stereo partly drawn) [D-Mannose 1-phosphate] | 158.3 | 143.99 | – | –
N[C@@H](Cc1ccc(O)c(O)c1)C(=O)O [3,4-Dihydroxy-L-phenylalanine] | – | 138.21 | 148.7 | –
N[C@@H](CS)C(=O)NCC(=O)O [Cysteinylglycine] | – | 131.77 | – | –
CC(=O)CC(=O)SCCNC(=O)CCNC(=O)[C@H](O)C(C)(C)COP(=O)(O)OP(=O)(O)OC[C@H]1O[C@@H](n2cnc3c(N)ncnc32)[C@H](O)[C@@H]1OP(=O)(O)O [Acetoacetyl coenzyme A] | – | 252.94 | 247.8 | –
COc1ccc(CC(=O)O)cc1 [4-Methoxyphenylacetic acid] | – | – | 137.4 | –
Cc1c(C)c2c(c(C)c1O)CC[C@@](C)(CCC[C@H](C)CCC[C@H](C)CCCC(C)C)O2 [alpha-Tocopherol] | – | 208.52 | 216.6 | –
Nc1ncnc2c1ncn2[C@@H]1O[C@H](COP(=O)(O)OS(=O)(=O)O)[C@@H](O)[C@H]1O [Adenosine 5'-phosphosulfate] | 190.4 | 180.48 | – | –

SMILES | collision cross section (N2) ([M+Na]+) [Å²] | collision cross section (N2) ([M-H]-) [Å²] | collision cross section (N2) ([M+H]+) [Å²] | also measured
NCCc1cnc[nH]1 [Histamine] | – | – | 120 | –
O=c1nc[nH]c2c1ncn2[C@H]1C[C@H](O)[C@@H](CO)O1 [Deoxyinosine] | – | 153.4 | 151.7 | –
COc1cc(/C=C/CO)cc(OC)c1O [Sinapyl alcohol] | – | 146.84 | – | collision cross section (N2) ([M+H-H2O]+): 136.5 Å²
C[C@H](CCC(=O)NCC(=O)O)[C@H]1CC[C@H]2[C@@H]3[C@H](O)C[C@@H]4C[C@H](O)CC[C@]4(C)[C@H]3CC[C@]12C [Glycochenodeoxycholate] | 203.3 | 198.85 | – | –
CC(C)(COP(=O)(O)OP(=O)(O)OC[C@H]1O[C@@H](n2cnc3c(N)ncnc32)[C@H](O)[C@@H]1O)[C@@H](O)C(=O)NCCC(=O)NCCS [Dephosphocoenzyme A] | – | 232.51 | 238.6 | –
CCCCCCCCCCCCCC[C@@H](O)[C@@H](O)[C@@H](N)CO [Phytosphingosine] | – | 180.68 | 196.2 | –
CC1=C(CCC(=O)O)c2cc3nc(cc4[nH]c(cc5[nH]c(cc1n2)c(C)c5CCC(=O)O)c(CCC(=O)O)c4C)C(CCC(=O)O)=C3C [Coproporphyrin III] | – | 271.13 | 257.2 | –
CCCC(=O)SCCNC(=O)CCNC(=O)[C@H](O)C(C)(C)COP(=O)(O)OP(=O)(O)OC[C@H]1O[C@@H](n2cnc3c(N)ncnc32)[C@H](O)[C@@H]1OP(=O)(O)O [Butyryl-coenzyme A] | – | 253.26 | – | –
O=c1ccn([C@@H]2O[C@H](COP(=O)(O)OP(=O)(O)OP(=O)(O)O)[C@@H](O)[C@H]2O)c(=O)[nH]1 [Uridine 5'-triphosphate] | – | 178.55 | – | –
CCCCCCCCCCCC(=O)SCCNC(=O)CCNC(=O)[C@H](O)C(C)(C)COP(=O)(O)OP(=O)(O)OC[C@H]1O[C@@H](n2cnc3c(N)ncnc32)[C@H](O)[C@@H]1OP(=O)(O)O [Lauroyl-CoA] | – | 283.18 | 284 | –
Nc1nc(=O)c2nc(CNc3ccc(C(=O)N[C@@H](CCC(=O)O)C(=O)O)cc3)cnc2[nH]1 [Folate] | – | – | 195.5 | –
OC[C@H]1OC(O)[C@H](O)[C@H](O)[C@@H]1O (stereo partly drawn) [D-Allose] | 143.1 | – | – | –
CCCCCCCCCCCCC/C=C/[C@@H](O)[C@@H](N)CO [Sphingosine] | – | – | 186 | –
O=C(O)c1ccccc1O[C@@H]1O[C@H](C(=O)O)[C@@H](O)[C@H](O)[C@H]1O [1-Salicylate glucuronide] | 170.1 | 157.84 | – | –
O=C(O)/C=C/c1ccccc1 [trans-cinnamate] | – | – | 125.3 | –
C[C@@H](N)C(=O)N[C@H](C)C(=O)O [D-Alanyl-D-alanine] | – | 134.05 | – | –
O=P(O)(O)OC[C@H]1O[C@](O)(CO)[C@@H](O)[C@@H]1O [Beta-D-Fructose 6-phosphate] | – | 141.02 | 149.3 | –
CC1=C(/C=C/C(C)=C\C=C\C(C)=C\C(=O)O)C(C)(C)CCC1 [9-cis-Retinoic acid] | – | 200.01 | – | collision cross section (N2) ([M+H-H2O]+): 169.6 Å²
CC(C)=CCOP(=O)(O)OP(=O)(O)O [Dimethylallyl pyrophosphate] | – | 143.1 | – | –
